test system: neutrophils (PMA-stimulated NETosis); test: Quantification of NETosis using SYTOX Green; assay type: cell-based, human; details: Apocynin at 100 uM; NET-forming cells as percentage of total cells
Description: Semi-automated analysis of both phase and fluorescence images of SYTOX Green-stained neutrophils used a MATLAB algorithm. Total cells were counted by scoring phase standard deviation and radial symmetry. NETosis was classified in cells by measuring the DNA area in the fluorescence image and comparing with a select internal training set for each experiment. Unstimulated cells and PMA-stimulated, pyocyanin-inhibited cells served as negative controls. PMA-stimulated cells served as a positive control. NET-forming cells are presented as a percentage of total cells.

Compound | % NETosis [%]
COc1cc(C(C)=O)ccc1O [Apocynin, reference compound] | 29.06

same assay, conditions: Homo sapiens, Neutrophil; NETosis, SYTOX Green-stained neutrophils, PMA-stimulated

Compound | IC50 [nM]
CC#CCC(=O)Nc1cccc(-c2cc3n(n2)Cc2ccc(NC(C)=O)cc2OC3)c1 [Example 4, N-(3-(7-acetamido-4H,10H-benzo[f]pyrazolo[5,1-c][1,4]oxazepin-2-yl)phenyl)pent-3-ynamide] | 800 ± 20
COc1cccc(-c2cc3n(n2)Cc2ccc(NC(C)=O)cc2OC3)c1 [Example 2, N-(2-(3-Methoxyphenyl)-4H,10H-benzo[f]pyrazolo[5,1-c][1,4]oxazepin-7-yl)acetamide] | 900 ± 200
COc1ccc(-c2cc3n(n2)Cc2ccc(NC(C)=O)cc2OC3)cc1 [Example 3, N-(2-(4-Methoxyphenyl)-4H,10H-benzo[f]pyrazolo[5,1-c][1,4]oxazepin-7-yl)acetamide] | 520 ± 60

same assay, conditions: compound at 5 uM; NET-forming cells as percentage of total cells; vehicle 79.66, untreated 14.54

Compound | 5 uM (% NETosis) [%]
CC(=O)Nc1cccc(-c2cc3n(n2)Cc2ccc(NC(C)=O)cc2OC3)c1 [Example 104] | 26.79
CC(=O)Nc1ccc2c(c1)OCc1cc(-c3ccc(F)cc3O)nn1C2 [Example 51] | 57.20
CC(=O)Nc1ccc2c(c1)OCc1cc(-c3cccc4c3CN(C)C4)nn1C2 [Example 89] | 84.44
CC(=O)Nc1ccc2c(c1)OCc1cc(-c3ccnn3C3CC3)nn1C2 [Example 60] | 63.78
CNC(=O)c1cccc(-c2cc3n(n2)Cc2ccc(NC(C)=O)cc2OC3)c1 [Example 101] | 85.18
CC(=O)Nc1ccc2c(c1)OCc1cc(-c3ccc(S(=O)(=O)N4CCN(C)CC4)cc3)nn1C2 [Example 96] | 82.37
CC(=O)Nc1ccc2c(c1)OCc1cc(-c3cccc4c3CN(C)C4=O)nn1C2 [Example 90] | 78.83
C#Cc1ccccc1-c1cc2n(n1)Cc1ccc(NC(C)=O)cc1OC2 [Example 44] | 83.27
CC(=O)Nc1ccc2c(c1)OCc1cc(-c3cnccc3C#N)nn1C2 [Example 72] | 80.10
c1ccc(-c2cc3n(n2)Cc2ccc(NC4CCCC4)cc2OC3)cc1 [Example 21, N-cyclopentyl-2-phenyl-4H,10H-benzo[f]pyrazolo[5,1-c][1,4]oxazepin-7-amine] | 86.47
COc1ncc(-c2cc3n(n2)Cc2ccc(NC(C)=O)cc2OC3)cn1 [Example 77] | 86.51
C#CCNc1ccc2c(c1)OCc1cc(-c3ccccc3)nn1C2 [Example 41] | 73.65
CC(=O)Nc1ccc2c(c1)OCc1cc(-c3ccnc4[nH]ccc34)nn1C2 [Example 91] | 77.13
COc1ccc(-c2cc3n(n2)Cc2ccc(NC(C)=O)cc2OC3)c(C)c1 [Example 83] | 51.91
Cn1cc(-c2ccc3c(c2)OCc2cc(-c4ccccc4)nn2C3)cn1 [Example 11] | 80.81
Cn1cc(Nc2ccc3c(c2)OCc2cc(-c4ccccc4)nn2C3)cn1 [Example 25] | 78.63
c1ccc(-c2cc3n(n2)Cc2ccc(-c4cnc5n4CCCC5)cc2OC3)cc1 [Example 13] | 80.46
CC(=O)Nc1ccc2c(c1)OCc1cc(-c3cc[nH]n3)nn1C2 [Example 57] | 87.44
CC(=O)Nc1ccc2c(c1)OCc1cc(-c3cccc(CC#N)c3)nn1C2 [Example 47] | 62.82
CC(=O)Nc1ccc2c(c1)OCc1cc(-c3cccc(C(=O)N(C)C)c3)nn1C2 [Example 100] | 85.05
CC(=O)Nc1ccc2c(c1)OCc1cc(-c3ccc4[nH]c(=O)oc4c3)nn1C2 [Example 87] | 78.92
CC(=O)Nc1ccc2c(c1)OCc1cc(-c3c(C)n[nH]c3C)nn1C2 [Example 75] | 85.26
CC(=O)Nc1ccc2c(c1)OCc1cc(-c3cccc(N(C)C(C)=O)c3)nn1C2 [Example 103] | 75.39

Compound | 5 uM (% NETosis) [%]
Clc1cc(Nc2ccc3c(c2)OCc2cc(-c4ccccc4)nn2C3)[nH]n1 [Example 27] | 54.56
COc1ccncc1-c1cc2n(n1)Cc1ccc(NC(C)=O)cc1OC2 [Example 70] | 78.10
CC(=O)Nc1ccc2c(c1)OCc1cc(-c3cnn(CCN(C)C)c3)nn1C2 [Example 92] | 81.09
CC(C)(C)Nc1ccc2c(c1)OCc1cc(-c3ccccc3)nn1C2 [Example 38] | 81.48
CC(=O)Nc1ccc2c(c1)OCc1cc(-c3ccnc(C4CC4)c3)nn1C2 [Example 62] | 41.23
OCCn1cc(Nc2ccc3c(c2)OCc2cc(-c4ccccc4)nn2C3)cn1 [Example 20] | 77.97
c1ccc(-c2cc3n(n2)Cc2ccc(-c4cnn5cccnc45)cc2OC3)cc1 [Example 14] | 83.04
COc1cncc(-c2cc3n(n2)Cc2ccc(NC(C)=O)cc2OC3)c1 [Example 71] | 69.95
CC(=O)Nc1ccc2c(c1)OCc1cc(-c3cccnc3C3CC3)nn1C2 [Example 65] | 83.56
CC(=O)Nc1ccc2c(c1)OCc1cc(-c3cnn(CC(F)(F)F)c3)nn1C2 [Example 93] | 73.17
CC(=O)Nc1ccc2c(c1)OCc1cc(-c3ccc(N(C)C(C)=O)cc3)nn1C2 [Example 82] | 77.67
Oc1cc(Nc2ccc3c(c2)OCc2cc(-c4ccccc4)nn2C3)[nH]n1 [Example 22] | 79.55
Clc1[nH]ncc1Nc1ccc2c(c1)OCc1cc(-c3ccccc3)nn1C2 [Example 28, N-(5-chloro-1H-pyrazol-4-yl)-2-phenyl-4H,10H-benzo[f]pyrazolo[5,1-c][1,4]oxazepin-7-amine] | 44.49
CC(=O)Nc1ccc2c(c1)OCc1cc(-c3ccc(F)cc3CO)nn1C2 [Example 46, N-(2-(4-fluoro-2-(hydroxymethyl)phenyl)-4H,10H-benzo[f]pyrazolo[5,1-c][1,4]oxazepin-7-yl)acetamide] | 51.25
CC(=O)Nc1ccc2c(c1)OCc1cc(-c3cncn3C)nn1C2 [Example 53] | 57.77
Cn1cc(Nc2ccc3c(c2)OCc2cc(-c4ccccc4)nn2C3)c(Cl)n1 [Example 31] | 85.26
N#CCn1cc(-c2ccc3c(c2)OCc2cc(-c4ccccc4)nn2C3)cn1 [Example 12, 2-(4-(2-phenyl-4H,10H-benzo[f]pyrazolo[5,1-c][1,4]oxazepin-7-yl)-1H-pyrazol-1-yl)acetonitrile] | 81.41
OCC1(Nc2ccc3c(c2)OCc2cc(-c4ccccc4)nn2C3)CC1 [Example 42] | 82.57
CC(=O)Nc1ccc2c(c1)OCc1cc(-c3c(O)cccc3F)nn1C2 [Example 49] | 42.24
CCc1n[nH]c(Nc2ccc3c(c2)OCc2cc(-c4ccccc4)nn2C3)c1Cl [Example 24] | 81.55
CNC(=O)c1ccc(-c2cc3n(n2)Cc2ccc(NC(C)=O)cc2OC3)cn1 [Example 73] | 82.63
CC(=O)Nc1ccc2c(c1)OCc1cc(-c3c(C)cnn3C)nn1C2 [Example 59] | 66.88
c1ccc(-c2cc3n(n2)Cc2ccc(NC4COC4)cc2OC3)cc1 [Example 30] | 84.70

Compound | 5 uM (% NETosis) [%]
CC(=O)Nc1ccc2c(c1)OCc1cc(-c3cccc(C#N)n3)nn1C2 [Example 78] | 58.91
CC(=O)Nc1ccc2c(c1)OCc1cc(-c3cccc4[nH]c(=O)[nH]c34)nn1C2 [Example 86] | 84.35
CC(=O)Nc1ccc2c(c1)OCc1cc(-c3cccc(F)c3)nn1C2 [Example 56] | 35.77
CC(=O)Nc1ccc2c(c1)OCc1cc(-c3ccnc(NC(C)=O)c3)nn1C2 [Example 102] | 85.50
CC(=O)Nc1ccc2c(c1)OCc1cc(-c3ccccc3C3CC3)nn1C2 [Example 76] | 63.32
CC(=O)NCc1cc(-c2cc3n(n2)Cc2ccc(NC(C)=O)cc2OC3)ccc1F [Example 98] | 48.65
c1ccc(-c2cc3n(n2)Cc2ccc(NC4CC4)cc2OC3)cc1 [Example 26] | 78.70
CC(=O)Nc1ccc2c(c1)OCc1cc(-c3cnc4[nH]ccc4c3)nn1C2 [Example 63] | 80.04
N#C[C@H]1C[C@H](Nc2ccc3c(c2)OCc2cc(-c4ccccc4)nn2C3)C1 [Example 29] | 87.44
CSc1ccccc1-c1cc2n(n1)Cc1ccc(NC(C)=O)cc1OC2 [Example 43] | 49.48
FC1(F)CC1CNc1ccc2c(c1)OCc1cc(-c3ccccc3)nn1C2 (stereo not drawn) [Example 40] | 71.44
Cn1cc(C#N)c(Nc2ccc3c(c2)OCc2cc(-c4ccccc4)nn2C3)n1 [Example 18] | 79.81
COc1cccc(C#N)c1-c1cc2n(n1)Cc1ccc(NC(C)=O)cc1OC2 [Example 94] | 90.90
CC(=O)Nc1ccc2c(c1)OCc1cc(-c3ccnc(C#N)c3)nn1C2 [Example 69] | 66.18
CNS(=O)(=O)c1ccccc1-c1cc2n(n1)Cc1ccc(NC(C)=O)cc1OC2 [Example 97] | 81.93
CC(=O)Nc1ccc2c(c1)OCc1cc(-c3ccccc3NC(C)=O)nn1C2 [Example 105] | 70.78
CNC(=O)c1ccc(F)c(-c2cc3n(n2)Cc2ccc(NC(C)=O)cc2OC3)c1 [Example 99] | 84.59
CC(=O)Nc1ccc2c(c1)OCc1cc(-c3ccc(F)cc3C#N)nn1C2 [Example 45] | 56.95
c1ccc(-c2cc3n(n2)Cc2ccc(-c4cncs4)cc2OC3)cc1 [Example 16] | 80.91
c1ccc(-c2cc3n(n2)Cc2ccc(-c4cnc5ncccn45)cc2OC3)cc1 [Example 15] | 77.26
c1ccc(-c2cc3n(n2)Cc2ccc(NC4CCC4)cc2OC3)cc1 [Example 23] | 86.22
CC(=O)Nc1ccc2c(c1)OCc1cc(-c3ccccc3NS(C)(=O)=O)nn1C2 [Example 88] | 71.64

— US12459957B2, “Therapeutic compounds and methods” (GENENTECH, INC., priority 2021, dated 2025)
